Assay results: article PMC8779995, “Metabolic Soft Spot and Pharmacokinetics: Functionalization of C-3 Position of an Eph–Ephrin Antagonist Featuring a Bile Acid Core as an Effective Strategy to Obtain Oral Bioavailability in Mice” (Pharmaceuticals, 2021)
Converted amounts (≈) assume the structure as drawn. “And” between values parts separate entries of the source, which are not always exact repeats. Equal values may be shown once. Read-outs that look alike come from different tables or passages of the source.

Assays:
EphA2-Fc = EphA2-Fc (Mus musculus, UniProt Q03145); test: Surface plasmon resonance (SPR) binding to sensorchip-immobilized EphA2-Fc
Chain of EphA2-Fc (Q03145 26-538): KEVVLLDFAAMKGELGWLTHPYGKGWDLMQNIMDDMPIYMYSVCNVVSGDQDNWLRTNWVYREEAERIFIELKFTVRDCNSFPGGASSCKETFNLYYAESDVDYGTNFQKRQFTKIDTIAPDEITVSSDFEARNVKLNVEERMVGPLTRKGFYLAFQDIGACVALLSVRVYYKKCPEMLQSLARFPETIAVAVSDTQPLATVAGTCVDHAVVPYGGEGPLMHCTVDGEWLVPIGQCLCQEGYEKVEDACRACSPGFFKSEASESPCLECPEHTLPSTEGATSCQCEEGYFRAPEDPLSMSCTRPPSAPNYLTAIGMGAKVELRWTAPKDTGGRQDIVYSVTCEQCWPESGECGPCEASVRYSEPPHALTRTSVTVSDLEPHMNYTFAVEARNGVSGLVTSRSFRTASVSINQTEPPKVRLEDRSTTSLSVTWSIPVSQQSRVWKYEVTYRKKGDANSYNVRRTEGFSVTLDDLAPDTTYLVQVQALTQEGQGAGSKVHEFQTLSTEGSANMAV
Protocol: SPR measurements were performed on a BIAcore X100 instrument (GE-Healthcare, Milwaukee, WI, USA), using research-grade CM4 carboxyl-methyl-dextran-coated sensorchips (GE-Healthcare). SPR was exploited to measure changes in refractive index caused by the binding of UniPR500 to surface-immobilized EphA2. […] Binding parameters were calculated by the non-linear curve fitting software package BIA evaluation 3.2 using a single site model with correction for mass transfer. The dissociation constant (Kd) was either derived from the dissociation rate (koff)/association rate (kon) ratio (kinetics) or by steady-state analysis (being fitted with the proper form of Scatchard’s equation for the plot of the bound RU at equilibrium vs. the ligand concentration in solution).

[1] = Phase I metabolic stability in mouse liver microsomes (MLM) with NADPH-generating system; type: in vitro ADME; details: for in vitro half-life (t1/2), phase I metabolism / half-life at 1 µM: NADPH-generating system; for half-life at 1 µM: pH 7.4, MLM, read-out: in vitro half-life (t1/2), phase I metabolism
[2] = Phase II glucuronidation stability in MLM (+UDPGA); type: in vitro ADME, mouse; details: 1 μM
Protocol: Phase I metabolic stability assays on UniPR compounds were carried out in the presence of MLM (final protein concentration: 1 mg/mL) following published procedures. MLM were also employed in phase II glucuronidation assays employing UDPGA as activating co-factor.
(§1) S.1 In vitro phase I liver metabolism in MLM
(§2) In phase I metabolic stability assays, samples were prepared in 100 mM phosphate buffered saline (PBS), pH 7.4, containing a NADPH-generating system (5 mM MgCl2, 10 mM glucose-6-phosphate, 2 mM NADP+, 1.5 U/mL of glucose-6-phosphate dehydrogenase) and 1 mg/mL mouse liver […]
solutions in DMSO were added to start the reaction. Final DMSO percentage in samples was kept at 1%. At fixed time points (t = 0, 15, 30, 45, 60 min), single aliquots of reaction mixture were withdrawn, processed with two vol. of ACN containing 100 nM UniPR126, centrifuged (16000 g, 10 min, 4 °C) and the supernatant was directly injected in the HPLC-ESI-MS/MS system. […]
(§3) Within-run accuracy and precision were checked employing QC samples representative of the whole calibration range (HQC = 800 nmol/l; MQC = 400 nmol/l; LQC = 5 nmol/l) with n = 3 replicates at each QC concentration level. […] The acceptance criteria for accuracy were to get back-calculated concentrations ± 15% of the nominal ones, except for the LLOQ, which had to be ± 20%. The acceptance criteria for precision, expressed as relative standard

[3] = Phase II sulfonation stability in mouse liver S9 fraction (+PAPS); type: in vitro ADME; details: mouse liver S9, 1 μM
Protocol: (§4) Phase II sulfonation assays were carried out in the presence of HLS9 or MLS9 fractions, as previously reported. The co-factor PAPS was incubated together with MgCl2, DTT, and UniPR compounds. The detailed experimental protocols for in vitro phase I and II metabolic stability assays are reported in Sections S.1–S.3 of the Supplementary Material. […] A 100 µL aliquot of the reaction mixture was extracted at the beginning of the experiment (t = 0) and at t = 180 min and processed as for the metabolic stability samples.
as §1, §2
solutions in DMSO were added to start the reaction. Final DMSO percentage in samples was kept at 1%. […]
as §3

[4] = Phase II sulfonation stability in human liver S9 fraction (+PAPS); type: in vitro ADME; details: pH 7.4, human liver S9, 1 μM, read-out: in vitro t1/2, sulfonation
Protocol: as §4
In vitro half-life (t1/2) in MLM and MLS9 fraction was calculated from the slope (k, Equation (1)) of the linear regression model obtained by fitting the log percentage UniPR compound remaining vs. time. in vitro t1/2 = −0.693/k (1) […]
S.1 In vitro phase I liver metabolism in MLM […]
as §3

[5] = In vivo pharmacokinetics in mice after single oral dose, plasma levels by HPLC-MS/MS; details: 30 mg/kg p.o.; for AUC(0-t): non-compartmental analysis
Protocol: Male mice (breed: C57BL/6J) were supplied by Charles River Labs, Milan, Italy. Mice were submitted to 12 h light-dark cycles under standard temperature and humidity conditions, with free access to water and chow. All experimental procedures were carried out following the European Community Council Directive 2010/63/UE, Italian regulations (DL 26/2014), and the ethical committee guidelines for animal research. […] Blood aliquots were withdrawn by tail puncture into heparinized tubes, centrifuged to collect plasma (2000× g, 10 min, 4 °C), and stored at −80 °C until analysis by HPLC-ESI-MS/MS. Details on the employed bioanalytical method and HPLC-ESI-MS/MS analytical conditions are given in Section S.4 of the Supplementary Material.
Microsoft Excel 365 (Microsoft Corp., Redmond, WA, USA) was employed for data analysis. GraphPad Prism v. 6.01 (GraphPad Software Inc., La Jolla, CA, USA) was employed for plotting graphs. The freeware software PCModFit V.6.7 (Add-on for Microsoft Excel) was employed for AUC calculations by non-compartmental analysis (NCA). […]
Calibration standards (CS, concentration range: 1000-2 nmol/L) were prepared by spiking blank […]
= 1%). Specificity of the method was checked comparing HPLC-MS/MS chromatograms of blank […]
Within-run accuracy and precision were checked employing QC samples representative of the whole calibration range (HQC = 800 nmol/l; MQC = 400 nmol/l; LQC = 5 nmol/l) with n = 3 replicates at each QC concentration level. Between-run accuracy and precision were checked employing QC samples at n=3 concentration levels in n = 3 analytical runs over three days. The acceptance criteria for accuracy were to get back-calculated concentrations ± 15% of the nominal ones, except for the LLOQ, which had to be ± 20%. The acceptance criteria for precision, expressed as relative standard

[6] = Lipophilicity, distribution coefficient n-octanol/buffer pH 7.4; type: physicochemical
[7] = n-octanol/buffer pH 7.4, cited from earlier work
[8] = cited from earlier work
[9] = set-up: method as in PMID 31891876, PMID 32927068; details: reference substrates; cited from earlier work
[10] = mice, cited from earlier work
[11] = 24 h incubation at 37 °C; cited from earlier work
[12] = cited from earlier work; remark: listed apart in the source
[13] = male, C57BL/6J, mouse, plasma, po

**Q.** For `C[C@H](CCC(=O)N[C@H](CC(=O)O)Cc1c[nH]c2ccccc12)[C@H]1CC[C@H]2[C@@H]3CCC4CC(=NO)CC[C@]4(C)[C@H]3CC[C@]12C` (stereo partly drawn) [UniPR500, N-(3-hydroxyimino-cholan-24-oyl)-L-β-homotryptophan], which “concentration at which saturation binding is reached” value (EphA2-Fc) is on record?
**A.** around 25 μM

**Q.** And the “in vitro half-life (t1/2), phase I metabolism” value ([1]; MLM, 1 μM)?
**A.** 60 min

**Q.** What about the half-life at 1 µM ([1]; mouse, liver microsomes, 1 μM) of the same compound?
**A.** 60.4 min

**Q.** And the “percentage of intact compound at t = 60 min, glucuronidation” value [2]?
**A.** 79.5 ± 2.9%

**Q.** And the “percentage remaining at t = 60 min, sulfonation” value [3]?
**A.** 81.0 ± 4.0%

**Q.** What about the half-life at 1 µM [4] of the same compound?
**A.** 58.6 ± 6.1 min

**Q.** And the “fold increase of AUC (0–6 h) with respect to UniPR129” value [5]?
**A.** 43 fold

**Q.** And the Tmax [5, 13]?
**A.** 30 min

**Q.** And the Cmax ([5]; male, C57BL/6J, mouse, plasma, po, mean ± S.E.M., n = 4, read-out: maximal plasma concentration (Cmax))?
**A.** 609 ± 102 nM

**Q.** What about the concentration at 1 h ([5]; male, C57BL/6J, mouse, plasma, po, mean ± S.E.M., read-out: plasma concentration at 1 h post-dose) of the same compound?
**A.** 344 ± 29 nM

**Q.** What about the concentration at 6 h ([5]; male, C57BL/6J, mouse, plasma, po, mean ± S.E.M., read-out: plasma concentration at 6 h post-dose) of the same compound?
**A.** 237 ± 24 nM

**Q.** And the AUC(0-t) [5, 13]?
**A.** 1.75 µM·h

**Q.** What about the “decrease of Log Doct,7.4 with respect to UniPR129” value [6] of the same compound?
**A.** approximately 0.7 log unit

**Q.** What about the “Log Doct,7.4” value ([7]; evaluated in a previous paper) of the same compound?
**A.** 4.23 ± 0.11 and 4.23

**Q.** What about the kinetic solubility ([8]; previously measured) of the same compound?
**A.** 30.6 ± 2.6 µg/mL and 30 µg/mL

**Q.** Which “t1/2 of known phase I CYP substrates” value [9] does the source give for `O=C(O)Cc1ccccc1Nc1c(Cl)cccc1Cl` [diclofenac] here?
**A.** ~6 min

**Q.** With `C[C@H](CCC(=O)N[C@H](CC(=O)O)Cc1c[nH]c2ccccc12)[C@H]1CC[C@H]2[C@@H]3CC[C@@H]4C[C@H](O)CC[C@]4(C)[C@H]3CC[C@]12C` [UniPR129, N-(3α-hydroxy-5β-cholan-24-oyl)-L-β-homotryptophan] as the compound, how does the “change in concentration in the absence of the NADPH-generating system” value ([1]; MLM control without NADPH-generating system) read?
**A.** No decrease

**Q.** And the “in vitro half-life (t1/2), phase I metabolism” value ([1]; MLM, 1 μM)?
**A.** 17 min

**Q.** And the “classification of in vitro phase I intrinsic clearance” value ([1]; classification bands of ref 19)?
**A.** high clearance compound

**Q.** And the half-life at 1 µM ([1]; mouse, liver microsomes, 1 μM)?
**A.** 16.8 min

**Q.** And the microsomal CLint at 1 µM ([1]; mouse, liver microsomes, pH 7.4, MLM, 1 μM, estimate from t1/2, read-out: phase I intrinsic clearance (CL'int))?
**A.** 41.4 µL/min/mg

**Q.** And the “percentage of intact compound at t = 60 min, glucuronidation” value [2]?
**A.** 85.7 ± 2.7%

**Q.** And the “percentage remaining at t = 60 min, sulfonation” value [3]?
**A.** 86.2 ± 5.3%

**Q.** And the half-life at 1 µM [4]?
**A.** 61.1 ± 4.3 min

**Q.** What about the AUC(0-t) [5, 13] of the same compound?
**A.** 0.0406 µM·h

**Q.** And the “plasma levels after oral administration” value ([10]; 30 mg/kg oral dose)?
**A.** low nanomolar range

**Q.** What about the Tmax ([10]; 30 mg/kg p.o.) of the same compound?
**A.** 60 min

**Q.** What about the Cmax ([10]; 30 mg/kg p.o., read-out: Cmax in plasma) of the same compound?
**A.** 13.6 ± 1.2 nM

**Q.** What about the “Log Doct,7.4” value [7] of the same compound?
**A.** 4.90 ± 0.15

**Q.** What about the “Log Doct,7.4” value ([7]; evaluated in a previous paper) of the same compound?
**A.** 4.90

**Q.** What about the kinetic solubility ([8]; PBS buffer pH 7.4) of the same compound?
**A.** 18.3 ± 2.4 µg/mL (≈ 31.7 µM)

**Q.** What about the kinetic solubility ([8]; previously measured) of the same compound?
**A.** 18 µg/mL (≈ 31.2 µM)

**Q.** And the “percentage recovered in mouse plasma” value [11]?
**A.** 98.3 ± 9.5%

**Q.** What about the “plasma protein binding (%bound)” value [12] of the same compound?
**A.** 98%
